Measurements reported in ChEMBL document CHEMBL4270663, “6-Benzhydryl-4-amino-quinolin-2-ones as Potent Cannabinoid Type 1 (CB1) Receptor Inverse Agonists and Chemical Modifications for Peripheral Selectivity” (J Med Chem, 2018).
Calls of active or inactive are those of the source. The rule behind the calls is not given here.

Key:
[1] = Drug uptake in C57BL/6J mouse plasma at 20 mg/kg, po measured after 4 hrs; format: ADME, organism-based
[2] = Drug uptake in plasma of diet-induced obese C57BL/6J mouse model at 3 mg/kg, po administered as daily dose measured at 2 hrs post last dose on day 22; format: ADME, organism-based
[3] = Drug uptake in C57BL/6J mouse plasma at 20 mg/kg, po measured after 1 hr; format: ADME, organism-based
Mus musculus [4] = experiment: Antiobesity activity in diet induced obese C57BL/6J mouse model assessed as decrease in food intake at 30 mg/kg administered as daily dose measured every day for 5 days; format: functional, organism-based
Mus musculus [5] = experiment: Antiobesity activity in diet induced obese C57BL/6J mouse model assessed as decrease in body weight at 3 mg/kg, po administered as daily dose measured every day for 5 days and continuing every other day till day 8 and 15; format: functional, organism-based
Cytochrome P450 2C19 = Cytochrome P450 2C19 (Homo sapiens, UniProt P33261); experiment: Inhibition of CYP2C19 in human liver microsomes using (S)-mephenytoin as substrate after 10 to 30 mins by LC/MS analysis; format: ADME
Sequence of Cytochrome P450 2C19 (P33261 whole entry): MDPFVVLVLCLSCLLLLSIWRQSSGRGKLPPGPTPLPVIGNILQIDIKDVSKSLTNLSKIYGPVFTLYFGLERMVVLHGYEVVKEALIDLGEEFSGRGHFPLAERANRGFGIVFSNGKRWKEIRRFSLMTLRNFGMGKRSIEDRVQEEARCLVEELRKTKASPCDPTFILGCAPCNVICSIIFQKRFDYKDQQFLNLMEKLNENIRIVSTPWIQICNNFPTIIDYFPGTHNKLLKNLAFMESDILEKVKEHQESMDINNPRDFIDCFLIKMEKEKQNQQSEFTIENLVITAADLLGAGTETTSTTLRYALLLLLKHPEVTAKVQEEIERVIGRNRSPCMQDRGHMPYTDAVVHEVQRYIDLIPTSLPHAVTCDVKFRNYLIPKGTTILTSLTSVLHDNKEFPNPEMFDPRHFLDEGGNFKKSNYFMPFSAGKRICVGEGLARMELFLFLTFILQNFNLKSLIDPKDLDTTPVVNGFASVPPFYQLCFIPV

[6] = Volume of distribution at steady state in C57BL/6J mouse at 5 mg/kg, iv or 20 mg/kg, po administered via gavage by LC-MS/MS analysis; format: ADME, organism-based; conditions: in vivo, read-out: Vdss
[7] = Drug uptake in brain of diet-induced obese C57BL/6J mouse model at 1 mg/kg, po administered as daily dose measured at 2 hrs post last dose on day 23; format: ADME, organism-based; conditions: in vivo
[8] = Metabolic stability in mouse liver microsomes assessed as parent compound remaining at 1 uM after 10 mins in presence of NADPH; format: ADME, microsome; conditions: read-out: Stability
[9] = Drug uptake in plasma of diet-induced obese C57BL/6J mouse model at 1 mg/kg, po administered as daily dose measured at 2 hrs post last dose on day 22; format: ADME, organism-based
Cannabinoid receptor 1 [10] = molecular target: T1, Cannabinoid receptor 1 (Homo sapiens, UniProt P21554); experiment: biochemical; format: cell-based, CHO
T1 sequence (P21554 whole entry): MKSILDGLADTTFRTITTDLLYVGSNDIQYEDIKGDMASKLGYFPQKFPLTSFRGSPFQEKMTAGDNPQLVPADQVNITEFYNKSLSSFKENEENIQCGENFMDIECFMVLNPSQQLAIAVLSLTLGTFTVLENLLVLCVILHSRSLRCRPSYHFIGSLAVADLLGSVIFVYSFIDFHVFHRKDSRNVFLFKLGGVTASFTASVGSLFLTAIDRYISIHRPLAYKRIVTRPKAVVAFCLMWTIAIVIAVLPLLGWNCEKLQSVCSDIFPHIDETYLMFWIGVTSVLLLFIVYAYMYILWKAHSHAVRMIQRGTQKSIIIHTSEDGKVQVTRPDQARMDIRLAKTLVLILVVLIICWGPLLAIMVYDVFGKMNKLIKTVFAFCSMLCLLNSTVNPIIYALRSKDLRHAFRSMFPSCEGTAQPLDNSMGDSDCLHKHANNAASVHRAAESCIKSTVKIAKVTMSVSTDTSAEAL

[11] = Ratio of drug level in brain to plasma of diet-induced obese C57BL/6J mouse model at 3 mg/kg, po administered as daily dose measured at 2 hrs post last dose on day 23; format: ADME, organism-based; conditions: read-out: BPR
[12] = Drug uptake in plasma of diet-induced obese C57BL/6J mouse model at 10 mg/kg, po administered as daily dose measured at 2 hrs post last dose on day 1; format: ADME, organism-based
[13] = Drug uptake in brain of MDR1a knockout CF-1 mouse at 20 mg/kg, po measured at 2 hrs post last dose on day 2; format: ADME, organism-based; conditions: in vivo
[14] = Half life in C57BL/6J mouse at 5 mg/kg, iv by LC-MS/MS analysis; format: ADME, organism-based; conditions: in vivo
[15] = Drug uptake in brain of diet-induced obese C57BL/6J mouse model at 10 mg/kg, po administered as daily dose measured at 2 hrs post last dose on day 2; format: ADME, organism-based; conditions: in vivo
Cytochrome P450 2D6 = Cytochrome P450 2D6 (Homo sapiens, UniProt P10635); experiment: Inhibition of CYP2D6 in human liver microsomes using dextromethorphan as substrate after 10 to 30 mins by LC/MS analysis; format: ADME
Sequence of Cytochrome P450 2D6 (P10635 whole entry): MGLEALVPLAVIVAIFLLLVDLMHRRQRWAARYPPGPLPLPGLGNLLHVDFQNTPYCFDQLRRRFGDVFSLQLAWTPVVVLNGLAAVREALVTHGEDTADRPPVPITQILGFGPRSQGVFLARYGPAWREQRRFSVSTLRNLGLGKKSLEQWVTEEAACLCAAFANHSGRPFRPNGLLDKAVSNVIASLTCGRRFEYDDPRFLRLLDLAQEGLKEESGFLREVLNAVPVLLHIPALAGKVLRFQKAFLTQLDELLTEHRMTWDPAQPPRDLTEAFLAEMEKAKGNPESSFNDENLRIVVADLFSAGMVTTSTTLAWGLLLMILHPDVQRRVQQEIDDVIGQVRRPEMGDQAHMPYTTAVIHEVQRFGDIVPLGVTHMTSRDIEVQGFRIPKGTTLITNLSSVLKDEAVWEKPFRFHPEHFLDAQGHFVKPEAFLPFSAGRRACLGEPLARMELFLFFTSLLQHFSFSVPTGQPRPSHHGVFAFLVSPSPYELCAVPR

[16] = Tmax in C57BL/6J mouse at 5 mg/kg, iv or 20 mg/kg, po administered via gavage by LC-MS/MS analysis; format: ADME, organism-based; conditions: in vivo
[17] = Drug uptake in plasma of MDR1a knockout CF-1 mouse at 20 mg/kg, po measured at 2 hrs post last dose on day 1; format: ADME, organism-based
[18] = Clearance in C57BL/6J mouse at 5 mg/kg, iv or 20 mg/kg, po administered via gavage by LC-MS/MS analysis; format: ADME, organism-based; conditions: in vivo
[19] = Metabolic stability in rat liver microsomes assessed as parent compound remaining at 1 uM after 10 mins in presence of NADPH; format: ADME, microsome; conditions: read-out: Stability
[20] = Drug uptake in brain of wild type CF-1 mouse at 20 mg/kg, po measured at 2 hrs post last dose on day 2; format: ADME, organism-based; conditions: in vivo
Cannabinoid receptor 2 = Cannabinoid receptor 2 (Homo sapiens, UniProt P34972); experiment: Inverse agonist activity at human CB2 receptor expressed in HEK293 cells assessed as […] cAMP accumulation after 30 mins by HTRF assay; format: functional, cell-based
Sequence of Cannabinoid receptor 2 (P34972 whole entry): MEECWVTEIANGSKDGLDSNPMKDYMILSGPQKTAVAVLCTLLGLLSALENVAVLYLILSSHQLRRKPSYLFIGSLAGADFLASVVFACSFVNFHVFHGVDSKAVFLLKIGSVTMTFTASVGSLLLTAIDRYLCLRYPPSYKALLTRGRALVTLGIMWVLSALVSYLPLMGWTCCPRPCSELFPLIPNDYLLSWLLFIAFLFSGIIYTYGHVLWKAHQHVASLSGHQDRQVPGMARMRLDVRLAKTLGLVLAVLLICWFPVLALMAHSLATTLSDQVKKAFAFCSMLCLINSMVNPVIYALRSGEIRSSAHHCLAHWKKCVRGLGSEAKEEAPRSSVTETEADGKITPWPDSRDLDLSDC

[21] = Drug uptake in plasma of diet-induced obese C57BL/6J mouse model at 30 mg/kg administered as daily dose measured at 2 hrs post last dose on day 5; format: ADME, organism-based
[22] = AUClast in C57BL/6J mouse at 20 mg/kg, po administered via gavage by LC-MS/MS analysis; format: ADME, organism-based; conditions: in vivo
[23] = molecular target: Voltage-gated inwardly rectifying potassium channel KCNH2 (Homo sapiens, UniProt Q12809); experiment: Inhibition of human ERG
Sequence of Voltage-gated inwardly rectifying potassium channel KCNH2 (Q12809 whole entry): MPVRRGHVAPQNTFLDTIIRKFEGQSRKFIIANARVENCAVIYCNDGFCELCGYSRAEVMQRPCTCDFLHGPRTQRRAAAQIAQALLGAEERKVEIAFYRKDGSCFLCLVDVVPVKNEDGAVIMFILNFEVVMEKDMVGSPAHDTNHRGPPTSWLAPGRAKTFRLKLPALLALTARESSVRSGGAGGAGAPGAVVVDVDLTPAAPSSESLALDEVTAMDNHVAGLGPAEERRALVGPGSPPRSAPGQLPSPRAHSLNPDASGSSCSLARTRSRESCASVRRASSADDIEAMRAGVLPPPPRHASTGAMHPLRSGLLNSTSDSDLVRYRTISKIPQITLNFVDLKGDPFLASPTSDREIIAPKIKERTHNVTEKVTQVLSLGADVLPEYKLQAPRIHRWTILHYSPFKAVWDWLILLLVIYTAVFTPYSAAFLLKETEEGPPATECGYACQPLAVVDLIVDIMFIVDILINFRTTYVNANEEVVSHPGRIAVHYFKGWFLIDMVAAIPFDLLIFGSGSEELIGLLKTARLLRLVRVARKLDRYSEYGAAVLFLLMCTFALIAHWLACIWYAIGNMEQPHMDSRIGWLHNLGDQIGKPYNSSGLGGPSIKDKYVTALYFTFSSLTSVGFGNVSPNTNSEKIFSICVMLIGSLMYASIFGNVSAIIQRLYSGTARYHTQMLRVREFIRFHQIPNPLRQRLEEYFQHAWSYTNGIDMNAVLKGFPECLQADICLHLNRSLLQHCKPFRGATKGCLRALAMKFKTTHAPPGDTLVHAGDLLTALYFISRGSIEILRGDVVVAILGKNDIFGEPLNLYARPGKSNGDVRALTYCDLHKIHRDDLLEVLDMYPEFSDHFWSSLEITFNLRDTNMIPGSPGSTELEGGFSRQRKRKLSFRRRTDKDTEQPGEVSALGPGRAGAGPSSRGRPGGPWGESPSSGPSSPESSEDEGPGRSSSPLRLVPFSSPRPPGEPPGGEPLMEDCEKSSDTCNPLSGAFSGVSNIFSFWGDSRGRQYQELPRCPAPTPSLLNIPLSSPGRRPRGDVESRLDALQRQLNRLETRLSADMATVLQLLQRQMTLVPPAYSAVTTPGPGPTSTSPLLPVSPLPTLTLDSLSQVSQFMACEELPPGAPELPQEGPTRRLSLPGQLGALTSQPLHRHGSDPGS

[24] = Drug uptake in plasma of diet-induced obese C57BL/6J mouse model at 3 mg/kg, po administered as daily dose measured at 2 hrs post last dose on day 1; format: ADME, organism-based
[25] = Oral bioavailability in C57BL/6J mouse at 20 mg/kg administered via gavage by LC-MS/MS analysis; format: ADME, organism-based; conditions: in vivo
Cannabinoid receptor 1 [26] = molecular target: T1, Cannabinoid receptor 1; experiment: Potency index, ratio of rimonabant IC50 to compound IC50 for displacement of [3H]-CP-55940 from human CB1 receptor expressed in CHO-K1 cell membranes
[27] = Ratio of drug level in C57BL/6J mouse brain to plasma at 20 mg/kg, po measured after 1 hr; format: ADME, organism-based; conditions: read-out: BPR
Mus musculus [28] = experiment: Induction of insulin sensitivity in diet induced obese C57BL/6J mouse model at 3 to 10 mg/kg, po administered as daily dose measured at day 26 post last dose; format: functional, organism-based
[29] = Drug uptake in plasma of wild type CF-1 mouse at 20 mg/kg, po measured at 2 hrs post last dose on day 1; format: ADME, organism-based
[30] = Ratio of drug level in brain to plasma of diet-induced obese C57BL/6J mouse model at 30 mg/kg administered as daily dose measured at 2 hrs post last dose on day 5; format: ADME, organism-based; conditions: read-out: BPR
[31] = Cmax in C57BL/6J mouse at 20 mg/kg, po administered via gavage by LC-MS/MS analysis; format: ADME, organism-based; design: dose 20 mg/kg, route oral; conditions: in vivo
[32] = Drug uptake in C57BL/6J mouse brain at 20 mg/kg, po measured after 4 hrs; format: ADME, organism-based; conditions: in vivo
[33] = Protein binding in plasma (unknown origin); format: ADME, cell-free; conditions: unidentified, read-out: PPB
Mus musculus [34] = experiment: Antiobesity activity in diet induced obese C57BL/6J mouse model assessed as decrease in liver fat content at 3 to 10 mg/kg, po administered as daily dose measured at day 26 post last dose; format: functional, organism-based
[35] = Drug uptake in brain of diet-induced obese C57BL/6J mouse model at 3 mg/kg, po administered as daily dose measured at 2 hrs post last dose on day 23; format: ADME, organism-based; conditions: in vivo
[36] = Ratio of drug level in brain to plasma of wild type CF-1 mouse at 20 mg/kg, po; format: ADME, organism-based; conditions: read-out: BPR
[37] = Drug uptake in brain of diet-induced obese C57BL/6J mouse model at 3 mg/kg, po administered as daily dose measured at 2 hrs post last dose on day 2; format: ADME, organism-based; conditions: in vivo
[38] = Drug uptake in brain of diet-induced obese C57BL/6J mouse model at 1 mg/kg, po administered as daily dose measured at 2 hrs post last dose on day 2; format: ADME, organism-based; conditions: in vivo

O=c1cc(NC2CCN(S(=O)(=O)C(F)(F)F)CC2)c2cc(C(c3ccc(Cl)cc3)c3ccc(Cl)cc3)ccc2[nH]1
concentration at 4 h [1]: 1.94 µM | concentration at 2 h [2]: 2.55 µM | concentration at 1 h [3]: 1.72 µM | Activity (Mus musculus [4]): Active | Activity (Mus musculus [5]): Active | IC50 (Cytochrome P450 2C19): > 10 µM | Vd [6]: 0.456 L/kg | Drug uptake [7]: 0.06 nmol/g | remaining at 10 min, 1 µM [8]: 100% | concentration at 2 h [9]: 0.843 µM | IC50 (Cannabinoid receptor 1 [10]): 0.0013 µM | Kp at 2 h [11]: 0.065 | concentration at 2 h [12]: 4.08 µM | Drug uptake [13]: 3.49 nmol/g | half-life [14]: 6.97 h | Drug uptake [15]: 0.102 nmol/g | IC50 (Cytochrome P450 2D6): > 10 µM | Tmax [16]: 2 h | concentration at 2 h [17]: 4.95 µM | clearance [18]: 2.21 mL/min/kg | remaining at 10 min, 1 µM [19]: 100% | Drug uptake [20]: 0.104 nmol/g | EC50 (Cannabinoid receptor 2): > 10 µM | concentration at 2 h [21]: 18.5 µM | AUC(0-t) [22]: 28.4 µM·h | IC50 [23]: > 50 µM | concentration at 2 h [24]: 1.24 µM | bioavailability [25]: 13% | Ratio IC50 (Cannabinoid receptor 1 [26]): 6 | Kp at 1 h [27]: 0.0073 | Activity (Mus musculus [28]): Active | concentration at 2 h [29]: 3.92 µM | Kp at 2 h [30]: 0.024 | Cmax [31]: 3.7 µM | Drug uptake [32]: 0.019 nmol/g | fraction unbound [33]: 0.0001 | Activity (Mus musculus [34]): Active | Drug uptake [35]: 0.164 nmol/g | Kp [36]: 0.027 | Drug uptake [37]: < 4 nmol/g | Drug uptake [38]: < 4 nmol/g
